According to patent US20060074048A1, “Mixed esters of hyaluronic acid with retinoic and butyric acids” (priority 2002, published 2006):

Key:
Assay type in all cases: cell-based, human
U937 cells = assay: Expression of membrane antigens by flow cytometry (FACS), U937; conditions: U937, 3 days; mixed ester 0.1 mg/ml, butyric acid 0.2 mM, retinoic acid 10^−5M
Protocol: Expression of CD44, CD11a, CD11b, CD18 antigens was measured with specific murine monoclonal antibodies and secondary anti-mouse antibodies conjugated to FITC. After immunofluorescence, cells were incubated in a solution containing propidium iodide (PI) (5 mg/ml), Rnase (10 kU/ml), and Nonidet P40 (0.005%). The fluorescence relative to PI was measured using a FACScan flow cytometer (Becton Dickinson) equipped with an argon laser at 488 nm excitation wavelength and a 610 nm filter. The fluorescence signal was collected in linear and logaritmic modes. Data were evaluated using the LYSIS II software.
To check whether the block of cell growth was accompanied by activation of differentiation, the selected experimental model consists of the U937 promyelo/monocytic cell line, in which the effect of mixed esters on a series of myelocyte/macrophage specific differentiation markers (CD11a, CD11b and CD18) has been studied. The resulting effect has been directly compared with that of the two active principles. […] The results have been compared with those obtained with butyric and retinoic acids at the same concentrations as in the mixed ester (respectively 0.2 mM and […]). Since the time of treatment was reduced to 3 days in these experiments, the effects on growth and cell cycle were also measured.
In table 2 are indicated the percentages of expression measured by FACS of some membrane antigens in U937 cells treated with the esters of the invention and with the two non-esterified active principles. For each treatment the control has been repeated and is then indicated by the respective superscript.
The evaluation was performed by flow cytometry after that the promyelo/monocytic U937 cell line was treated for 3 days with mixed ester at 0.1 mg/ml concentration, butyric acid at 0.2 mM concentration or retinoic acid at 10^−5M concentration. Human lymphocytes were used as negative control for the expression of the antigen under examination.

[1] = test system: promyelo/monocytic cell line U937; assay: Cell cycle perturbation by flow cytometry, U937; conditions: U937, 3 days; mixed ester 0.1 mg/ml, BA 0.2 mM, RA 10^−5 M
Protocol: The evaluation was performed by flow cytometry (panels a, b, c) after 6 days of continuous treatment with mixed ester at 0.1 or 1 mg/ml concentrations and was compared with the effect on cell growth determined by a colorimetric method (MTT), described by the curve -●-.
The effect on cell cycle and on cell proliferation has been assessed. The assessment has been performed by flow cytometry after 3 days of treatment with the mixed ester of the invention at 0.1 mg/ml concentration, or with butyric acid or retinoic acid at concentrations of 0.2 mM and 10^−5 M, respectively. Cell cycle perturbations induced by these compounds are related to the effect on cell proliferation (ordinate axis) exerted by identical concentrations of the drugs and expressed as percentage of the control (CTR) represented by cells cultured in medium alone. […] CTR: control. Panel a): (Go=45%; S=46%), panel b): (Go=44%; S=45%); panel c) (Go=43%; S=45%); panel d): (Go=72%; S=22%); panel e) (Go=41%; S=46%), panel f): (Go=94%; S=2%).
To evaluate cell cycle alterations, cells were re-suspended in a solution containing only propidium iodide, Rnase and Nonidet P40 and the fluorescence was measured using a FACScan flow cytometer.

[2] = test system: promyelo/monocytic cell line U937; assay: MTT cell proliferation, U937; conditions: for growth inhibition by free active principle: stated in the U937/HL-60 context
Protocol: MCF7, U937, HL-60 and HT29 cell lines were purchased from the American […] Culture Collection (Rockville, […].). MCF7 cells were grown in DMEM/F12 supplemented with 5% FBS, while U937 and HL-60 were grown in RPMI-1640 supplemented with 10% (v/v) foetal bovine serum.
Approximately 1000 cells (MCF7 and HT29) and 500 cells (U937 and HL-60) per well were used in 96-well plates and were treated as indicated in the examples. At the end of the experiment, the anti-proliferative effect was measured with 3-(4,5-dimethylthiazol-2-yl)-2,5-diphenyltetrazolium bromide (MTT). The blank value, corresponding to wells containing all the components but cells, was subtracted from the absorbance values obtained.

For `CC1=C(/C=C/C(C)=C/C=C/C(C)=C/C(=O)O)C(C)(C)CCC1` [retinoic acid, Retinoic acid], the CD11a expression (U937 cells) was 91%, the CD11b expression (U937 cells) was 28% and the CD18 expression (U937 cells) was 83%. The CD44 expression (U937 cells) was 97%, the “cells blocked in G0/1 (Go) phase” value [1] was 94% and the “cells in S phase” value [1] was 2%. For the same compound, the “growth inhibition by free active principle” value ([2]; RA 10^−4 M) was roughly 100%.
Work on `CCCC(=O)O` [butyric acid, Butyric Acid] yielded a CD11a expression (U937 cells) of 76%, a CD11b expression (U937 cells) of 17% and a CD18 expression (U937 cells) of 82%. For the same compound, the CD44 expression (U937 cells) was 91%, the “cells blocked in G0/1 (Go) phase” value [1] was 44% and the “cells in S phase” value [1] was 45%. The “growth inhibition by free active principle” value ([2]; BA 2 mM) was roughly 100% and the “anti-proliferative effect and cell cycle block” value ([2]; U937, 3 days, BA 0.2 mM, RA 10^−5 M) was “totally ineffective”.
